Columns and labels:
dopamine D1 receptor = dopamine D1 receptor (Homo sapiens, UniProt P21728); assay: Binding affinity to cloned human dopamine receptors (radioligand displacement), D1; settings: for Affinity to Dopamine Receptors (% Inhibition) D1: 1 µM test compound
Procedure: (§1) Experimental Example: Test for the Binding Affinity to Dopamine Receptor
(§2) Binding affinities of the compounds for dopamine receptors were determined indirectly by their ability to displace radiolabeled ligand from cloned human dopamine receptors. Compounds were incubated in receptor suspension to compete with the radiolabeled ligand. The receptor-bound radiolabeled ligand was separated by filtering through Wallac glass fiber filtermat (GF/C) using Inotech cell harvester of 96-well format. The radioactivity bound to filter was counted by Micro-P counter (Wallac).
(§3) The aliquots of cloned human dopamine receptors stored at −70° C. were suspended in assay buffer and the content of receptor in each aliquot was determined by Bio-Rad DC protein assay kit to give an optimal protein (receptor) concentration obtained by preliminary receptor binding assay. Receptor suspension adjusted to optimal concentration was aliquoted in proper volume for assay and stored at −70° C. Binding assays of every compound were performed in duplicate and each different buffer solution was used for optimal assay with each subtype of dopamine receptors. Receptor binding assays were carried out in 96-well plates. Receptor suspension of 100 was incubated at 27° C. for 30-60 min in a final volume of 0.25 ml reaction mixture containing 50 of hot-ligand and 10 of test compound.
(§4) After incubation, the reaction mixture was washed with ice-cold 50 mM Tris-acetate buffer by rapid filtration using a Inotech cell harvester (Inotech, Switzerland) through Whatman GF/C glass fiber filter presoaked in the assay buffer. The filter was covered with MeltiLex, sealed in a sample bag followed by drying in the microwave, and counted by MicroBeta Plus (Wallac, Finland) at a counting efficiency of 30-40%.

dopamine D2 receptor = dopamine D2 receptor (Homo sapiens, UniProt P14416); assay: Binding affinity to cloned human dopamine receptors (radioligand displacement), D2; settings: for Affinity to Dopamine Receptors (% Inhibition) D2: 1 µM test compound
Procedure: as §1, §2, §3, §4

dopamine D3 receptor = dopamine D3 receptor (Homo sapiens, UniProt P35462); assay: Binding affinity to cloned human dopamine receptors (radioligand displacement), D3; settings: for Affinity to Dopamine Receptors (% Inhibition) D3: 1 µM test compound
Procedure: as §1, §2, §3, §4

dopamine D4 receptor = biological target: T1, dopamine D4 receptor (Homo sapiens, UniProt P21917); assay: Binding affinity to cloned human dopamine receptors (radioligand displacement), D4; settings: for Affinity to Dopamine Receptors (% Inhibition) D4: 1 µM test compound
T1 sequence (P21917 1-419): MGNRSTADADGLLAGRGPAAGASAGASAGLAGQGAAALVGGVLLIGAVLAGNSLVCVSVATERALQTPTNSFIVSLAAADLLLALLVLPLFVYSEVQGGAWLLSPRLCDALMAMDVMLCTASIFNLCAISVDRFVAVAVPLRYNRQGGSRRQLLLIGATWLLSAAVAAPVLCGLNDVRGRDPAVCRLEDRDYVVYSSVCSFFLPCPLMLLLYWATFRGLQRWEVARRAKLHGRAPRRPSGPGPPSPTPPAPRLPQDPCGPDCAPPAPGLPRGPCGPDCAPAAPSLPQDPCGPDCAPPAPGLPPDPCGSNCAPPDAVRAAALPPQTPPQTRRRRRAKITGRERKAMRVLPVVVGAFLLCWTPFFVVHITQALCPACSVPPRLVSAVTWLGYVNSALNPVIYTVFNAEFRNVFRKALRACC
Procedure: as §1, §2, §3, §4

dopamine D1 receptor, sequence (P21728 whole entry): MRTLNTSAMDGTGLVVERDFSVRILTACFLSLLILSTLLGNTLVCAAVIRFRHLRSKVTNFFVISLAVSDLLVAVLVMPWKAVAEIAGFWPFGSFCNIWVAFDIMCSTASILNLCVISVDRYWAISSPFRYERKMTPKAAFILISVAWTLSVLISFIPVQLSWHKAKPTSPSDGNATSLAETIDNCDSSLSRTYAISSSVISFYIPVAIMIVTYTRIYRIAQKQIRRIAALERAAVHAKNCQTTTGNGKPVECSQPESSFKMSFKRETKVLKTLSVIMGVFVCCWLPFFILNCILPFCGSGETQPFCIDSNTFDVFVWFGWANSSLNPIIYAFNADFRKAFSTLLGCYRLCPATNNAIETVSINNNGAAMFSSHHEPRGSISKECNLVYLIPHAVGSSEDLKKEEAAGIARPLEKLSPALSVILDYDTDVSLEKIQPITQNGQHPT
dopamine D2 receptor, sequence (P14416 whole entry): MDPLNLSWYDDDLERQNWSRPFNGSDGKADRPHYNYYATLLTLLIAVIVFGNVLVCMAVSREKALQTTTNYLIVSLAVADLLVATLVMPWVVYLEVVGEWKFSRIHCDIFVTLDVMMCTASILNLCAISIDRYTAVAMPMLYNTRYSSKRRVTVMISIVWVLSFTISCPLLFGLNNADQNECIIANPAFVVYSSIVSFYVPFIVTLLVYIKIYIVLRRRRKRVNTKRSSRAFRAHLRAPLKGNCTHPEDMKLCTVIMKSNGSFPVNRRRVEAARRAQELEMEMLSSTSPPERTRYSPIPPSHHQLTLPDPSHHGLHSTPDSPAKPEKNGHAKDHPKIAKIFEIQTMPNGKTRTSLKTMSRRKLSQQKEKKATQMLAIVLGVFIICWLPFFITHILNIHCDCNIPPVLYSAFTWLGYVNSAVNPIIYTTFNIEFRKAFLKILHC
dopamine D3 receptor, sequence (P35462 whole entry): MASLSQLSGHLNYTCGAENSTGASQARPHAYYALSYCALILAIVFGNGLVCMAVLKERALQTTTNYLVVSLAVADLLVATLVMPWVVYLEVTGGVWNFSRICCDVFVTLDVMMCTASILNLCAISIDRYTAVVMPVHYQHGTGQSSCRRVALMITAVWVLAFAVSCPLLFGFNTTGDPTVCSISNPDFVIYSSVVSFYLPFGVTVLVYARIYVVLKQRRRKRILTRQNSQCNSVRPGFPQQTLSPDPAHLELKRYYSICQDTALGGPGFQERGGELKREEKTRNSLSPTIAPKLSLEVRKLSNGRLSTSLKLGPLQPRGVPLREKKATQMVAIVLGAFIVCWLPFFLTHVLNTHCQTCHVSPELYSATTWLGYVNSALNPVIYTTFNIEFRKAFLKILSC

Row | SMILES | IC50 (dopamine D1 receptor) [nM] | Affinity to Dopamine Receptors (% Inhibition) D1 (dopamine D1 receptor) [%] | IC50 (dopamine D2 receptor) [nM] | Affinity to Dopamine Receptors (% Inhibition) D2 (dopamine D2 receptor) [%] | IC50 (dopamine D3 receptor) [nM] | Affinity to Dopamine Receptors (% Inhibition) D3 (dopamine D3 receptor) [%] | IC50 (dopamine D4 receptor) [nM] | Affinity to Dopamine Receptors (% Inhibition) D4 (dopamine D4 receptor) [%]
1 | COc1ccc(-c2cc(CCCCN3CCN(c4ccccc4OC)CC3)on2)cc1OC [Compound No. 39] | 2880 | 23.9 | 1900 | 23 | 12 | 105.1 | 395 | 80.1
2 | C(=C\c1cc(CCCCN2CCN(C(c3ccccc3)c3ccccc3)CC2)on1)/c1ccccc1 [Compound No. 29] |  | 32.6 |  | 0.0 |  | 102.4 |  | 31.6
3 | c1ccc(N2CCN(CCCCc3cc(-c4cccs4)no3)CC2)cc1 [Compound No. 33] | 310 | 52.9 | 18800 | 6.7 | 35 | 104.4 | 180 | 62.4
4 | CCOc1ccccc1N1CCN(CCCCc2cc(-c3cccs3)no2)CC1 [Compound No. 53] |  |  | 880 | 54.1 |  |  | 19 | 93.4
5 | CCOc1ccccc1N1CCN(CCCCc2cc(-c3ccccc3)no2)CC1 [Compound No. 54] |  |  | 1550 | 29.9 | 21 | 101.8 | 52 | 77.6
6 | COc1ccc(-c2cc(CCCN3CCN(c4ccccc4)CC3)on2)c(OC)c1 [Compound No. 32] | 110 | 70 | 9980 | 10.6 | 38 | 100.1 | 117 | 74.9
7 | CCOc1ccccc1N1CCN(CCCc2cc(-c3ccc(F)cc3)no2)CC1 [Compound No. 20] |  |  |  | 47.9 |  | 89.4 |  | 86.2
8 | C(=C\c1cc(CCCCN2CCN(c3ccccc3)CC2)on1)/c1ccccc1 [Compound No. 36] |  | 75.2 |  | 22.2 |  | 107.9 |  | 69
9 | COc1ccccc1N1CCN(CCCCc2cc(-c3ccc(F)cc3)no2)CC1 [Compound No. 37] |  | 52.2 |  | 57.3 |  | 112.5 |  | 91.3
10 | Fc1ccccc1N1CCN(CCCCc2cc(/C=C/c3ccccc3)no2)CC1 [Compound No. 46] |  | 75.8 | 2660 | 15.6 |  |  | 89 | 45.1

Reference: patent publication US6723724B2, “Isoxazolylalkylpiperazine derivatives having selective biological activity at dopamine D3 or D4 receptor, and preparation thereof” (priority 2000, dated 2004)
